Values joined by “and” are separate entries in the source; they are usually repeats but may differ in a detail not shown here. Equal entries are not always repeated.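 How tested: cells in 96-well plates exposed to compound for 48 hours at five concentrations. At the GI50, growth is halved. TGI is the concentration that stops growth completely.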
Key:
Experiment in all cases: NCI-60 cell line screen, 48 h
[1] = tested on: A498 renal
[2] = tested on: HCT-15 colon
[3] = tested on: UO-31 renal
[4] = tested on: RPMI-8226 leukemia
[5] = tested on: KM12 colon
[6] = tested on: OVCAR-5 ovarian
[7] = tested on: HT29 colon
[8] = tested on: NCI-H460 lung
[9] = tested on: CAKI-1 renal
[10] = tested on: PC-3 prostate

Row | Compound | GI50 [1] [µM] | TGI [1] [µM] | GI50 [2] [µM] | TGI [2] | GI50 [3] [µM] | TGI [3] [µM] | GI50 [4] [µM] | TGI [4] | GI50 [5] | TGI [5] [µM] | GI50 [6] [µM] | TGI [6] [µM] | TGI [7] | GI50 [8] [µM] | TGI [8] [µM] | GI50 [9] | TGI [9] [µM] | GI50 [10] [µM] | TGI [10] [µM] | GI50 [7] [µM]
1 | COc1cc2c3c(n(CCN(C)C)c(=O)c2cc1OC)-c1cc2c(cc1C3=O)OCO2 | 15 | 87.1 | 2.32 | > 100 µM | 9.3 | > 100 | 0.0315 | 19.2 µM | 15.2 µM | > 60.2 | > 100 | > 100 | > 73.4 µM | 0.157 | > 100 | 0.747 µM | 44.3 | 31.4 | > 100 | 
2 | Oc1c(-c2ccccc2)sc2ccccc12 |  | 88.4 |  | > 100 µM |  | 84.6 |  | 43.5 µM |  | 75.6 |  | 90.3 | 81.6 µM |  | 51.2 |  | 13.6 |  | 69.1 | 
3 | Cn1cc(C[C@@H](N)C(=O)O)c2ccccc21 |  | > 100 |  | > 100 µM |  | > 100 |  | > 100 µM |  | > 100 |  | > 100 | > 100 µM |  | > 100 |  | > 100 |  | > 100 | 
4 | [N-]=[N+]=Nc1c([N+](=O)[O-])c(Cl)nc2ccccc12 |  | 26.8 |  | 3.77 µM |  | 1.58 |  | > 20.8 µM |  | 21.1 |  | 5.63 | 5.09 µM |  | 33.2 |  | 4.58 |  | 4.75 | 
5 | Cc1cc2c(cc1C)[n+](=O)c(N1CCN(c3ccc([N+](=O)[O-])cc3)CC1)c(C#N)n2[O-] |  | > 100 |  | > 100 µM |  | > 100 |  | > 100 µM |  | > 100 |  | > 100 | > 100 µM |  | 70 |  | > 100 |  | > 100 | 
6 | CCOc1ccc2c(ccc(/C=C\c3cc(C)c4cccnc4c3O)[n+]2C)c1 |  | 9.1 |  | 23.7 µM |  | 35.1 |  | 13.2 µM |  | 22.7 |  | 16.7 | > 32.8 µM |  | 10.2 |  | 29.3 |  | 6.14 | 
7 | O=C1c2ccccc2C(=O)N1CCCCCCNOCCCN1C(=O)c2ccccc2C1=O |  | 93.8 |  | > 100 µM |  | > 100 |  | 99.4 µM |  | 78.8 |  | > 100 | > 100 µM |  | > 100 |  | > 100 |  | > 100 | 
8 | c1ccc2c3c([nH]c2c1)C1c2[nH]c4ccccc4c2CCN1CC3 |  | 34.4 |  | 26.9 µM |  | 18.5 |  | > 100 µM |  | 41.3 |  | 33.7 | 26.7 µM |  | 24.3 |  | 34.2 |  | 27.1 | 
9 | CCOc1ccc(/C=C/[N+](=O)[O-])cc1 | 2.79 | 11.5 | 2.84 | 11.3 µM | 13.8 | 28.8 | 2.14 | 6.17 µM | 4.51 µM | 15.4 | 6.31 | 19.8 | 5.27 µM | 26.8 | > 100 | 37 µM | > 100 | 12.4 | 33.7 | 2.32
10 | COc1ccc(-n2c(C)nc3ccc(NC4OCC(O)C(O)C4O)cc3c2=O)cc1 (stereo unspecified) |  | > 100 |  | 65.8 µM and 80.8 µM |  | > 100 |  | 49.4 µM and 61.6 µM | 36.5 µM and > 100 µM | > 100 |  | > 100 | 68.5 µM and 80.2 µM |  | > 100 | > 100 µM and 39.5 µM | > 100 |  | > 100 | 
11 | CCCN(CCCCN1C(=O)c2ccccc2C1=O)CC1COc2ccccc2O1 (stereo unspecified) |  | > 100 |  | > 100 µM |  | > 100 |  | 84.9 µM |  | > 100 |  | > 100 | > 100 µM |  | > 100 |  | > 100 |  | > 100 | 
12 | COP1(=O)NCc2ncccc2O1 (stereo unspecified) |  | > 100 |  | > 100 µM |  | > 100 |  | > 100 µM |  | > 100 |  | > 100 | > 100 µM |  | > 100 |  | > 100 |  | > 100 | 
13 | N=C(N)n1[nH]c2c(c1=O)CCCC2 |  | > 100 |  | > 100 µM |  | > 100 |  | > 100 µM |  | > 100 |  | > 100 | > 100 µM |  | > 100 |  | > 100 |  | > 100 | 
14 | O=[N+]([O-])c1cccc2nc3ccccc3c(NCCCN3CCOCC3)c12 |  | 0.0377 |  | 0.0491 µM |  | 0.0564 |  | 0.187 µM |  | 0.054 |  | 0.0841 | 0.0349 µM |  | 0.0661 |  | 0.0785 |  | 0.0684 | 
15 | CCN1CC2=C(NC(=S)NC2c2cc(OC)c(OC)c(OC)c2)/C(=C/c2cc(OC)c(OC)c(OC)c2)C1 (stereo unspecified) |  | 87.8 |  | > 100 µM |  | 67.7 |  | 42.9 µM |  | > 100 |  | > 100 | > 100 µM |  | > 100 |  | > 100 |  | > 100 | 

— PubChem BioAssay (NCI)
